The text below walks through data of US20250382255A1, “ERYTHRITOL ESTER OF PHENYL BUTYRIC ACID” (AAYAM THERAPEUTICS LLC, priority 2022, published 2025).

Where two headings read alike, the source gives them in different places.

This series in a line: Pharmacokinetics (PK) study, plasma exposure of PBA after oral dosing of PBA analogues. The format is in vivo, SD rats. How it is done: Pharmacokinetics (PK) study was carried out to evaluate the plasma exposure of two PBA analogues (ATX-2022-018 and ATX-2022-034), when dosed orally (PO) at 22.5 mg/kg in 50% Propylene glycol. Dosing was done in overnight fasted SD rats (n=6). After oral (PO) administration blood was collected by serial bleeding at 8 different time points in heparinized tubes. Blood samples were centrifuged at 10,000 rpm for 5 min. at 4° C. to obtain the plasma, which were aspirated into separate labeled tubes and stored at −80° C. Extraction solvent was added to plasma (150 μL 0.1% acetic acid in water: 0.1% acetic acid Methanol, 20:80) was vortexed and shaken on shaker for 10 minutes, centrifuged at 10,000 rpm for 10 minutes at 4° C. Supernatant was used for LC-MS analysis. Parent drug generated that is PBA was monitored by LC-MS (API3200).
Details of the LC column and mobile phase used for the analysis is provided below: • Column: Gemini NX C18, 50 mm*4.6 mm*3.5μ • Mobile Phase: A: 0.1% Acetic in Water • B: 0.1% Acetic acid in Methanol • Flow rate: 0.600 mL/min, gradient program
Acetonitrile and plasma calibration curves were generated and percentage of drug recovery from plasma determined. Quantitative analysis was done by liquid chromatography tandem mass spectrometer (API3200 LC-MS/MS). Cmax, Tmax, AUC and t½ were calculated using Graph Pad PRISM version 5.04.

Setting [1] is: SD, rat, in vivo, po, 22.5 mg/kg.
[2] abbreviates: PBA monitored in plasma by LC-MS, overnight fasted SD rats, PO 22.5 mg/kg in 50% Propylene glycol.

The term Cmax denotes the highest concentration seen after dosing. What is called MRT is the average time that molecules of a dose stay in the body. What is called Tmax is the time at which the peak concentration occurs. As for `O=C(CCCc1ccccc1)OC[C@H](OC(=O)CCCc1ccccc1)[C@@H](COC(=O)CCCc1ccccc1)OC(=O)CCCc1ccccc1` [ERYTHRITOL ANALOG OF PBA, (2R,3S)-butane-1,2,3,4-tetrayl tetrakis(4-phenylbutanoate)], under setting [1], the AUC is reported as 104,814 nM · h, the “CHANGE of AUC (Increase)” value was “Increase 3-fold”, the “CHANGE of CL (Decrease)” value is listed as “Decrease 2.7-fold” and the “CHANGE of Cmax (Increase)” value is given as “Increase 4-fold”. In addition, under setting [1], the “CHANGE of MRT (Increase)” value was “Increase 1.5-fold”, the “CHANGE of Vd (Decrease)” value is “Decrease 2.75-fold”, the CL came to 225 mL/h and the Cmax came to 51.3 µM. Besides, under setting [1], the MRT worked out at 36 min, the Tmax turned out to be 12 min and the Vd was 2,600 ml.
With `O=C(CCCc1ccccc1)OC[C@H](OC(=O)CCCc1ccccc1)[C@H](COC(=O)CCCc1ccccc1)OC(=O)CCCc1ccccc1` [THREITOL ANALOG OF PBA, (2S,3S)-butane-1,2,3,4-tetrayl-tetrakis(4-phenylbutanoate), reference compound], under setting [2], the AUC is 37,594 nM · h, the CL turned out to be 600 mL/h, the MRT worked out at 24 min and the Tmax amounted to 18 min. Besides, the Vd under setting [2] is listed as 7,161 ml. Moreover, the highest concentration (Cmax) (PBA monitored in plasma by LC-MS, overnight fasted SD rats, PO 22.5 mg/kg in 50% Propylene glycol, read-out: Cmax) amounted to 12.5 µM.
